Data on 64 compounds can be found in US7989464B2, “mGluR1 antagonists as therapeutic agents” (Schering Corporation, priority 2004, dated 2011).

The target in this experiment is T1, hmGluR1 receptor (Homo sapiens, UniProt Q13255).
T1 construct: expressed in transfected cells
In words: IC50 determination: intracellular calcium mobilization (FLIPR) upon Quisqualate stimulation in CHO cells stably expressing hmGluR1. The class given is cell-based. Particulars: against Quisqualate 1 μM (EC80). The procedure, abridged: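 CHO cells stably expressing hmGluR1 were kept overnight in DMEM high glucose with GPT and 1 mM pyruvate, then loaded 2 h with Calcium 3 dye.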
(In general: Calcium flux is commonly read through the fluorescence of an indicator in the cells.)

The mark [1] stands for this setting: class symbols, read-out: mGIuR 1 IC50.
The mark [2] stands for this setting: FLIPR calcium mobilization, read-out: IC50 Class.

Read-outs that look alike come from different tables or passages of the source. Some results are limits rather than exact numbers.

T1 sequence (Q13255 19-1194): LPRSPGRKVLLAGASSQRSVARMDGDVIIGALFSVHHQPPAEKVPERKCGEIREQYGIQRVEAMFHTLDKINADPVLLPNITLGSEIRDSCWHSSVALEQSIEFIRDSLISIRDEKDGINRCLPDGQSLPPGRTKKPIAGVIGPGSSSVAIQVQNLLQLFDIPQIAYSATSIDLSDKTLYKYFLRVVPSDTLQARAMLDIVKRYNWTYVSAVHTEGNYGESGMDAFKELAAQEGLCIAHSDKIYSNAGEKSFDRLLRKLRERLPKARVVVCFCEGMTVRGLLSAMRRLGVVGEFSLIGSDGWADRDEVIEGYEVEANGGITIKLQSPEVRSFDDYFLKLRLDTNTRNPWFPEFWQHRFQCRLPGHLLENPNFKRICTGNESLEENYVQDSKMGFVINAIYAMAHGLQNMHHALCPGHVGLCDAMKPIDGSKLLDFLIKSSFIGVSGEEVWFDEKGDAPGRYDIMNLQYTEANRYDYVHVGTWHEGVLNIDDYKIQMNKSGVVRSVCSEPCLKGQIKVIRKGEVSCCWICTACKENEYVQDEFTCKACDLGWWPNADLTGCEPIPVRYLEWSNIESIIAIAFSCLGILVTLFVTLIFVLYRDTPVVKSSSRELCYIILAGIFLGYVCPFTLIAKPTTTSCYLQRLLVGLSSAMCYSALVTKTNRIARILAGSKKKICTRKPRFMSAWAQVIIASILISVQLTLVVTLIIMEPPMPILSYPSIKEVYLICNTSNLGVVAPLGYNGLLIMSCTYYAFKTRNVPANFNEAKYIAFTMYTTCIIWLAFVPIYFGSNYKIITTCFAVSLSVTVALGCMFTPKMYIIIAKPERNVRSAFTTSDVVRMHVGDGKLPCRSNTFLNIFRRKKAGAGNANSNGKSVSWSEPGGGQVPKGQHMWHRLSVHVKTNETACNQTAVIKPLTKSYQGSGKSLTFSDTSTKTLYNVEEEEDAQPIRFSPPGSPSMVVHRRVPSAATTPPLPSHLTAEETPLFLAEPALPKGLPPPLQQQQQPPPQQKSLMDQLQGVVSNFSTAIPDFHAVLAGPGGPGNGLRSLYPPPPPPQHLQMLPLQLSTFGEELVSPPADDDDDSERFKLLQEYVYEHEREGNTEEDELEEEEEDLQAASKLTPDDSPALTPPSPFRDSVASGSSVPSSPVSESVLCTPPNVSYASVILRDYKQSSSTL

The IC50 is the concentration that inhibits the measured activity by half. `CCCN(C)c1ccnc2sc3c(=O)n(-c4ccc(OC)cc4)cnc3c12` [28AO]: the IC50 under setting [1] was less than 50 nM.

Consider `O=c1c2sc3nccc(NC4CC4)c3c2ncn1-c1ccc2c(c1)CCO2` [28CE], for which the IC50 under setting [2] is less than 50 nM. On the same count and under the same terms, the figure for `CSCCNc1ccnc2sc3c(=O)n(-c4ccc(C)cc4)cnc3c12` [28EV] is less than 50 nM. In the case of `O=c1c2sc3nccc(N4CCOCC4)c3c2ncn1C1CCCCC1` [28O], the IC50 under setting [1] is more than 1000 nM. Turning to `CC(=O)N1CCN(c2ccnc3sc4c(=O)n(C5CCCCC5)cnc4c23)CC1` [compound 62], the IC50 under setting [1] is more than 1000 nM. The same measure, in the same setting: the figure for `C=CCN(C)c1ccnc2sc3c(=O)n(-c4ccc(C)cc4)cnc3c12` [28AC] is less than 50 nM. Consider `CN(C)c1ccnc2c1c1ncn(-c3ccc4ncsc4c3)c(=O)c1n2C` [134E], for which the IC50 under setting [1] is more than 1000 nM. On to `O=c1c2sc3nccc(N4CCN(CC5CC5)CC4)c3c2ncn1C1CCCCC1` [61B], for which, under setting [1], the IC50 is more than 1000 nM.

Turning to `Cc1ccc(-n2cnc3c(sc4cnnc(N(C)C)c43)c2=O)cc1` [167B], the IC50 under setting [2] lay in the range of 50 to 150 nM. For `COc1ccc(-n2cnc3c(sc4nccc(NC5CCCCC5)c43)c2=O)cc1` [28E], under setting [1], the IC50 is more than 1000 nM. The same measure, in the same setting: the figure for `CN(C)c1ccnc2sc3c(=O)[nH]cnc3c12` [7E] is more than 1000 nM. With `COCCNc1ccnc2sc3c(=O)n(-c4ccc(OC)cc4)cnc3c12` [28DC], the IC50 under setting [2] is less than 50 nM. Consider `Cc1ccc(-n2cnc3c(sc4nccc(N(C)N)c43)c2=O)cc1` [28AE], for which the half-inhibitory concentration (IC50) under setting [1] is less than 50 nM. With `CN(C)c1ccnc2sc3c(=O)n(C4CCCCCCC4)cnc3c12` [15Q], the IC50 under setting [1] was less than 50 nM. With `CCNc1ccnc2sc3c(=O)n(-c4cccc(Br)c4)cnc3c12` [28CR], under setting [2], the IC50 was in the range of 50 to 150 nM. As to `CN(C)c1cc[n+]([O-])c2sc3c(=O)n(-c4ccc(Cl)cc4)cnc3c12` [12B], the IC50 under setting [1] was in the range of 50 to 150 nM. Consider `COc1ccc(-n2cnc3c(sc4nccc(NC5CC5)c43)c2=O)c(C)c1` [131I], for which the IC50 under setting [2] lay within 50 to 150 nM. In the case of `CN(C)c1ccnc2sc3c(=O)n(-c4ccc5c(c4)CCO5)cnc3c12` [7CG], the IC50 under setting [1] is less than 50 nM. Take `CN(C)c1ccnc2sc3c(=O)n(-c4ccccn4)cnc3c12` [7U]: the IC50 under setting [1] lay in the range of 50 to 150 nM. For `CN(C)c1ccnc2sc3c(=O)n(-c4ccc(CO)cc4)cnc3c12` [7AY], the 50% inhibitory concentration (IC50) under setting [1] was less than 50 nM.

In the case of `CN1CCC(n2cnc3c(sc4nccc(N(C)C)c43)c2=O)CC1` [15U], under setting [1], the half-inhibitory concentration (IC50) is 150 to 1000 nM.

For `CN(C)c1c(C#N)ncc2sc3c(=O)n(-c4ccc(Cl)cc4)cnc3c12` [compound 55], under setting [1], the concentration for half-maximal inhibition (IC50) lay in the range of 50 to 150 nM. Regarding `Cc1ccc(-n2cnc3c(sc4nccc(N5CC[C@@H](O)C5)c43)c2=O)cc1` [28CV], the IC50 under setting [2] is more than 1000 nM. Same read-out and setting: the figure for `COc1ccc(-n2cnc3c(sc4ncnc(N)c43)c2=O)cc1` [95FU] is 50 to 150 nM. Still for that read-out and setting: the figure for `C#CCNc1ccnc2sc3c(=O)n(-c4ccc(OC)c(F)c4)cnc3c12` [28DW] is less than 50 nM. The same measure, in the same setting: the value for `COc1ccc(Nc2ncnc3sc4c(=O)n(-c5ccc(Cl)cc5)cnc4c23)cc1` [95GH] was 50 to 150 nM; that for `O=c1c2sc3nccc(N4CCCC4)c3c2ncn1-c1ccc(Br)cc1` [28GT] was 150 to 1000 nM. For `CC(O)CCNc1ccnc2sc3c(=O)n(-c4ccc(F)cc4)cnc3c12` (centres unmarked) [28HN], the IC50 under setting [2] is less than 50 nM. Consider `COCCNc1ncnc2sc3c(=O)n(CCOC)cnc3c12` [95DX], for which, under setting [2], the IC50 was more than 1000 nM. Consider `CCCCn1cnc2c(sc3nccc(N(C)C)c32)c1=O` [7P], for which the IC50 under setting [1] was in the range of 50 to 150 nM. Take `COc1ccc(-n2cnc3c(sc4nccc(NCC(F)(F)F)c43)c2=O)c(C)c1` [28BP]: under setting [2], the IC50 fell in the range of 150 to 1000 nM. With `O=c1c2sc3nccc(NCC4CC4)c3c2ncn1C1CCCCC1` [28AJ], under setting [1], the concentration for half-maximal inhibition (IC50) was in the range of 150 to 1000 nM. The same measure, in the same setting: the value for `O=C(Nc1ccnc2sc3c(=O)n(C4CCCCC4)cnc3c12)c1ccccc1` [73C] was more than 1000 nM. On to `COc1ccc(-n2cnc3c(sc4nccc(OC)c43)c2=O)c(C)c1` [28BL], for which the IC50 under setting [2] was more than 1000 nM. On the same count and under the same terms, the value for `Cc1ccc(-n2cnc3c(sc4cnnc(Cl)c43)c2=O)cc1` [compound 166] was more than 1000 nM; that for `CCN(C)c1ccnc2sc3c(=O)n(-c4ccc5c(c4)OCO5)cnc3c12` [28IE] was less than 50 nM.

`Cc1ccc(-n2cnc3c(sc4nccc(N(C)C)c43)c2=O)c(F)c1` [7DW]: the half-maximal inhibitory concentration (IC50) under setting [1] was less than 50 nM.

As for `CN(C)c1ccnc2sc3c(=O)n(-c4ccc(C(F)(F)F)cc4)cnc3c12` [7DO], the IC50 under setting [1] is less than 50 nM. Regarding `CN(CCO)c1ccnc2sc3c(=O)n(-c4ccc(Cl)cc4)cnc3c12` [28HG], the IC50 under setting [2] was less than 50 nM.

Consider `CN(C)c1ccnc2sc3c(=O)n(-c4ccc(C5CC5)cc4F)cnc3c12` [137F], for which the IC50 under setting [2] was 50 to 150 nM. As for `Cc1cc(N(C)C)c2c(n1)sc1c(=O)n(-c3ccc(F)cc3)cnc12` [7DC], the IC50 under setting [1] was less than 50 nM. The same measure, in the same setting: the value for `CCN(C)c1ccnc2sc3c(=O)n(-c4ccccc4)c(C)nc3c12` [113D] was less than 50 nM; that for `CCc1ccnc2sc3c(=O)n(C4CCCCC4)cnc3c12` [29C] was 50 to 150 nM; that for `O=c1c2sc3nccc(C4CCCC4)c3c2ncn1C1CCCCC1` [29B] was more than 1000 nM.

Turning to `O=c1c2sc3nc(Cl)ccc3c2ncn1-c1ccccc1` [compound 14], under setting [1], the IC50 was more than 1000 nM.

As to `CCN(C)c1ncnc2sc3c(=O)n(-c4ccc(OC(F)F)cc4)cnc3c12` [95T], the IC50 under setting [1] is less than 50 nM. `CNc1nc(N)c2c(n1)sc1c(=O)n(-c3ccc(C)cc3)cnc12` [71B]: the IC50 under setting [2] was more than 1000 nM.

On to `O=c1c2sc3nccc(NCCO)c3c2ncn1C1CCCCC1` [28AG], for which the half-inhibitory concentration (IC50) under setting [1] was 50 to 150 nM. As to `C=C(C)CNc1ncnc2sc3c(=O)n(-c4ccccc4)cnc3c12` [95FH], the IC50 under setting [2] is less than 50 nM.

With `Nc1ccnc2sc3c(=O)n(-c4ccc(Cl)cc4)cnc3c12` [28FK], the IC50 under setting [2] was less than 50 nM. In the case of `O=c1c2sc3nccc(NCCO)c3c2ncn1-c1ccc(Br)cc1` [28GA], the IC50 under setting [2] is less than 50 nM.

As for `CN(C)c1ccnc2sc3c(=O)n(-c4ccc5[nH]c(=O)[nH]c5c4)cnc3c12` [7CS], under setting [1], the IC50 lay within 150 to 1000 nM. On to `Cc1ccc(-n2cnc3c(sc4nccc(N[C@@H](C)CO)c43)c2=O)cc1` [28DD], for which the IC50 under setting [2] was 150 to 1000 nM. Same read-out and setting: the value for `COCCNc1ccnc2sc3c(=O)n(-c4ccc(Br)cc4)cnc3c12` [28GO] was less than 50 nM. Turning to `CN(C)c1ccnc2sc3c(=O)n(-c4ccc5c(c4)CCC5)cnc3c12` [7BI], the IC50 under setting [1] is less than 50 nM. With `C=CCNc1ccnc2sc3c(=O)n(-c4ccc(OC)cc4)cnc3c12` [28DS], the IC50 is less than 50 nM under setting [2] and 1.95 nM (FLIPR calcium mobilization, read-out: mGluR1 IC50). Take `Cc1cc(N(C)C)c2c(n1)sc1c(=O)n(-c3ccc(C(F)(F)F)cc3)cnc12` [7DM]: under setting [1], the IC50 lay within 150 to 1000 nM.

For the compound `CC(=O)NN(C)c1ccnc2sc3c(=O)n(-c4ccc(Cl)cc4)cnc3c12` [73H], the IC50 under setting [2] lay in the range of 150 to 1000 nM. On to `CN(C)c1ccnc2sc3c(=O)n(-c4ccc5c(c4)CC=C5)cnc3c12` [7BL], for which, under setting [1], the IC50 is less than 50 nM. As for `C#CCNc1nncc2sc3c(=O)n(-c4ccc(C)cc4)cnc3c12` [167J], the IC50 under setting [2] lay within 50 to 150 nM. In the case of `O=c1c2sc3nccc(NC4CC4)c3c2ncn1-c1cccc(F)c1` [28CN], the IC50 under setting [2] is less than 50 nM. `COc1ccc(-n2cnc3c(sc4cncc(N(C)C)c43)c2=O)cc1` [37F]: the IC50 under setting [1] lay in the range of 50 to 150 nM. With `CCc1nc2c(sc3nccc(N(C)C)c32)c(=O)n1-c1ccc(C)cc1` [116A], the half-maximal inhibitory concentration (IC50) under setting [1] lay in the range of 50 to 150 nM. `O=c1c2sc3nccc(NC4CC4)c3c2ncn1-c1ccc2scnc2c1` [131J]: the IC50 under setting [2] is less than 50 nM.
